Reference: patent US4278595A, “Orally active MIF analogs with an effect on the central nervous system” (Vega Laboratories, Inc., priority 1979, dated 1981)
Where a SMILES comes first, the peptide text is derived from it. [ ]: non-standard residue; d: D form. pGlu = O=C1CC[C@@H](C(=O)O)N1

Columns and labels:
Assay type in all cases: in vivo, rat
[1] = test system: reserpinized male Long-Evans rats; assay: Locomotor activity of reserpinized rats after intraventricular administration (first series); conditions: rats reserpinized i.p. 10 mg/kg
Method: (§1) The MIF analogs were tested for "Parkinsonion" locomotor behavior response by three different test procedures.
In the first series of tests, male Long-Evans rats were prepared with a cannula fixed from the exterior to the lateral ventricle for direct intraventricular administration. The rats were reserpinized i.p. (10 mg/kg), and then MIF or MIF analogs, were given directly into the CSF. Activity of the rats was measured in counts/10 minutes with a digital printout activity meter (Columbus Instruments, model PB 5244, Columbus, Ohio). The results of these tests are as follows

[2] = test system: reserpinized male Long-Evans rats; assay: L-DOPA potentiation: locomotor activity of reserpinized rats given agent i.p. with Carbi-DOPA and L-DOPA (second series); conditions: 2 mg/kg i.p. with 10 mg/kg Carbi-DOPA and 100 mg/kg L-DOPA
Method: as §1
In the second series of tests, male Long-Evans rats prepared and reserpinized as described for the first series, were treated i.p. with 2 mg/kg of MIF or MIF analog, 10 mg/kg of Carbi-DOPA, a competitive inhibitor of DOPA-decarboxylase (to prolong the L-DOPA effect), and 100 mg/kg of L-DOPA. The control group received the latter two substances, but no MIF or MIF analog. Activity of the rats was measured, in counts/10 minutes with a digital printout activity meter, at 15, 35, 55, 75, 95 and 105 minutes after injection.

[3] = test system: male Sprague-Dawley rats with unilateral 6-hydroxy-Dopamine lesion in the substantia nigra; assay: Duration of L-DOPA-reversed rotational behavior in rats with unilateral 6-hydroxy-Dopamine lesion of the substantia nigra (third series)
Method: The MIF analogs were tested for "Parkinsonion" locomotor behavior response by three different test procedures. In the third series of tests, male Sprague-Dawley rats received a unilateral chemical lesion (by injection of 6-hydroxy-Dopamine) in the substantia nigra, which is followed by rotational movement. When L-DOPA is given i.p. (in two doses, 13 and 26 mg/kg) the direction of rotational movement is reversed, and the duration of the reversed rotational motion was measured in minutes. The same doses of L-DOPA were then given in the experimental groups in combination with 2 mg/kg of either MIF or the MIF analogs, all i.p., or by gastric tube in a dose of 4 mg/kg, and the duration, in minutes, of reversed rotational behavior was observed.

[4] = 10 ng directly into the CSF (lateral ventricle)
[5] = 100 ng directly into the CSF (lateral ventricle)
[6] = Injection: L-DOPA i.p. (13 and 26 mg/kg) alone or in combination with 2 mg/kg MIF or analog i.p.
[7] = Oral: L-DOPA i.p. (13 and 26 mg/kg) alone or in combination with 4 mg/kg MIF or analog by gastric tube

## CC(C)C[C@@H](NC(=O)[C@@H]1CCC(=O)N1)C(=O)NCC(N)=O [pGlu--D--Leu--Gly--NH2] ([pGlu]-[dL]-Gly-NH2)
[1]; [4]
  % Increase in Activity, Counts/10 Minutes: 240%
[1]; [5]
  % Increase in Activity, Counts/10 Minutes: 360%
[2]; 15 min. after injection
  % Increase in Activity, counts/10 min.: 126%
[2]; 35 min. after injection
  % Increase in Activity, counts/10 min.: 538%
[2]; 55 min. after injection
  % Increase in Activity, counts/10 min.: 2450%
[2]; 75 min. after injection
  % Increase in Activity, counts/10 min.: 2036%
[2]; 95 min. after injection
  % Increase in Activity, counts/10 min.: 1035%
[2]; 105 min. after injection
  % Increase in Activity, counts/10 min.: 478%
[3]; [6]
  Duration of Reversed Rotational Behavior: 96 ± 7.9 min
[3]; [7]
  Duration of Reversed Rotational Behavior: 110 ± 9.3 min

## N[C@@H](Cc1ccc(O)c(O)c1)C(=O)O [L-DOPA]
[3]; [6]
  Duration of Reversed Rotational Behavior: 38 ± 3.4 min
[3]; [7]
  Duration of Reversed Rotational Behavior: 38 ± 3.4 min

## CC(C)C[C@H](NC(=O)[C@@H]1CCCN1)C(=O)NCC(N)=O [MIF, Pro--L--Leu--Gly--NH2, reference compound] (H-Pro-Leu-Gly-NH2)
[1]; [4]
  % Increase in Activity, Counts/10 Minutes: No effect
[1]; [5]
  % Increase in Activity, Counts/10 Minutes: No effect
[3]; [6]
  Duration of Reversed Rotational Behavior: 55 ± 6.2 min
[3]; [7]
  Duration of Reversed Rotational Behavior: 58 ± 5.3 min
